The values that follow come from patent US20230102554A1 (GB002, INC., priority 2019, published 2023).

By pIC50 is commonly meant the IC50 on a negative log10 scale, so that one unit is a factor of ten.

pIC50: −log10 of the molar value.

In assay [1] the target is T1, Human PDGFRα, cytoplasmic domain (GST-PDGFRα) (Homo sapiens, UniProt P16234).
T1 construct: made in house
The assay can be described thus: Human PDGFRα biochemical inhibition assay (off-chip Mobility Shift Assay).

The target in assay [2] is T2, Human PDGFRβ, cytoplasmic domain (GST-PDGFRβ) (Homo sapiens, UniProt P09619).
T2 construct: made in house
The assay can be described thus: Human PDGFRβ biochemical inhibition assay (off-chip Mobility Shift Assay). The method, boiled down:
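GST-tagged cytoplasmic domain (aa 557-1106) from baculovirus was incubated 1 h at room temperature with compound, CSKtide, ATP at Km and Mg²⁺ in HEPES buffer, pH 7.5. Phosphorylated and unphosphorylated peptide were separated by off-chip mobility shift, and the product ratio P/(P+S) gave percent inhibition.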

T2 sequence (P09619 with tags, fused parts or gaps): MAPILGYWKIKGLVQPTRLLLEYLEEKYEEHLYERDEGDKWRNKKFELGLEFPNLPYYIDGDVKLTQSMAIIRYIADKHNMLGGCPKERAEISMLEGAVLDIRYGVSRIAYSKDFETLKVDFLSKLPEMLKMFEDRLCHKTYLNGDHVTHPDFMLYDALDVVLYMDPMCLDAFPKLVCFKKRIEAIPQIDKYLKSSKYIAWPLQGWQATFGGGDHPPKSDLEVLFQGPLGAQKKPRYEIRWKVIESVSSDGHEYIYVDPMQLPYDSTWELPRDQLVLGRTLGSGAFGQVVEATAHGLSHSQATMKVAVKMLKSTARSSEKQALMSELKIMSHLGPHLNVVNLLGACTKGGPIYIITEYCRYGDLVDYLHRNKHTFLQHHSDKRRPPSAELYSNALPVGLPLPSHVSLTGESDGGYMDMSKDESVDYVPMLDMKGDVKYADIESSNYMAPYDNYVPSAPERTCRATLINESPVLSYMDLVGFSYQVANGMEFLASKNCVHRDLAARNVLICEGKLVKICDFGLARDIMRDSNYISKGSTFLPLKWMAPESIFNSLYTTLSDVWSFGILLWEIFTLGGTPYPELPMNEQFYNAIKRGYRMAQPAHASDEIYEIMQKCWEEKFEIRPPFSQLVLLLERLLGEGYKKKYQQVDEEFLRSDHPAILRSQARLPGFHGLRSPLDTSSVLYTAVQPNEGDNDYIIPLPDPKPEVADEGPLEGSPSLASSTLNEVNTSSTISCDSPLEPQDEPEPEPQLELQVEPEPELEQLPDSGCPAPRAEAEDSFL
T1 sequence (P16234 550-1089 T674I): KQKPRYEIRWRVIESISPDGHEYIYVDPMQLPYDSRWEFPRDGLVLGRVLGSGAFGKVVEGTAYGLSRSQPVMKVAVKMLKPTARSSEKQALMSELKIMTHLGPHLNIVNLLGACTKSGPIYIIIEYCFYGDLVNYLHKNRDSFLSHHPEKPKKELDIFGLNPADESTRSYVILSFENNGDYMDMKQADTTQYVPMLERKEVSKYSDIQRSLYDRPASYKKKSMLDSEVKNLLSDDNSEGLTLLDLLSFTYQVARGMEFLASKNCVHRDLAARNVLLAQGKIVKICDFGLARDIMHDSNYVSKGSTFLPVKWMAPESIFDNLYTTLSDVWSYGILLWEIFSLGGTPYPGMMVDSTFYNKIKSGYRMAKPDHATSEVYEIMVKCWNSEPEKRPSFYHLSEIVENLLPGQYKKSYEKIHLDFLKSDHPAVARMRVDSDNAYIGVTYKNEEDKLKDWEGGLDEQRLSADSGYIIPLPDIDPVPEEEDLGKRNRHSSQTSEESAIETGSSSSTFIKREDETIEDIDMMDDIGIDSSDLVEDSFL

On to `CCn1cc2ncc(N[C@@H](C)c3cccc(NC(=O)c4ccc(Cl)c(F)c4)c3)nc2n1` [Compound 347, (S)-4-chloro-N-(3-(1-((2-ethyl-2H-pyrazolo[3,4-b]pyrazin-6-yl)amino)ethyl)phenyl)-3-fluorobenzamide], for which the pIC50 in assay [1] and in assay [2] was > 6.52 in each case.

Regarding `COc1ccc(C(=O)Nc2cccc([C@H](C)Nc3cnc4cnn(C)c4n3)c2)cc1C` [Compound 210, (S)-4-methoxy-3-methyl-N-(3-(1-((1-methyl-1H-pyrazolo[3,4-b]pyrazin-6-yl)amino)ethyl)phenyl)benzamide], the pIC50 in assay [1] and in assay [2] was > 6.52 in each case.

Turning to `CCn1cc2ncc(N[C@@H](C)c3cccc(NC(=O)c4cnc(Br)c(C)c4)c3)nc2n1` [Compound 350, (S)-6-bromo-N-(3-(1-((2-ethyl-2H-pyrazolo[3,4-b]pyrazin-6-yl)amino)ethyl)phenyl)-5-methylnicotinamide], the pIC50 in assay [1] and in assay [2] was > 6.52 throughout.

Consider `CCNc1ncc(C(=O)Nc2cccc([C@H](C)Nc3cnc4cnn(C)c4n3)c2)cc1C` [Compound 194, (S)-6-(ethylamino)-5-methyl-N-(3-(1-((1-methyl-1H-pyrazolo[3,4-b]pyrazin-6-yl)amino)ethyl)phenyl) nicotinamide], for which the pIC50 in assay [1] and in assay [2] was > 6.52 in each case.

Consider `CCn1cc(C(=O)Nc2cccc([C@H](C)Nc3cnc4[nH]cc(C)c4n3)c2)cn1` [Compound 574, (S)-1-ethyl-N-(3-(1-((7-methyl-5H-pyrrolo[2,3-b]pyrazin-2-yl)amino)ethyl)phenyl)-1H-pyrazole-4-carboxamide], for which the negative logarithm of the IC50 (pIC50) in assay [1] and in assay [2] was > 6.52 in each case.

For the compound `CCn1cc2ncc(N[C@@H](C)c3cccc(NC(=O)c4ccc(C5CC5)s4)c3)nc2n1` [Compound 291, (S)-5-cyclopropyl-N-(3-(1-((2-ethyl-2H-pyrazolo[3,4-b]pyrazin-6-yl)amino)ethyl)phenyl)thiophene-2-carboxamide], the pIC50 in assay [1] and in assay [2] was > 6.52 throughout.

In the case of `CCn1cc2ncc(N[C@@H](C)c3cccc(NC(=O)c4cnc(NC(C)=O)s4)c3)nc2n1` [Compound 370, (S)-2-acetamido-N-(3-(1-((2-ethyl-2H-pyrazolo[3,4-b]pyrazin-6-yl)amino)ethyl)phenyl)thiazole-5-carboxamide], the pIC50 in assay [1] was 6.00 to 6.52; in assay [2], ≤ 6.00.

In the case of `CCn1cc2ncc(N[C@@H](C)c3cccc(NC(=O)c4ccc(CN5CCC6(CC5)COC6)c(C)c4)c3)nc2n1` [Compound 480, (S)-4-((2-oxa-7-azaspiro[3.5]nonan-7-yl)methyl)-N-(3-(1-((2-ethyl-2H-pyrazolo[3,4-b]pyrazin-6-yl)amino)ethyl)phenyl)-3-methylbenzamide], the negative-log IC50 (pIC50) in assay [1] was > 6.52; in assay [2], 6.00 to 6.52.

`Cc1n[nH]c2ncc(N[C@@H](C)c3cccc(NC(=O)c4cnc(C5CC5)s4)c3)nc12` [Compound 541, (S)-2-cyclopropyl-N-(3-(1-((3-methyl-1H-pyrazolo[3,4-b]pyrazin-5-yl)amino)ethyl)phenyl)thiazole-5-carboxamide]: the pIC50 in assay [1] and in assay [2] was > 6.52 each time.

As for `CCn1cc2ncc(N[C@@H](C)c3cc(NC(=O)Cc4ccc(C5CCC5)nc4)ccc3F)nc2n1` [Compound 671, (S)-2-(6-cyclobutylpyridin-3-yl)-N-(3-(1-((2-ethyl-2H-pyrazolo[3,4-b]pyrazin-6-yl)amino)ethyl)-4-fluorophenyl) acetamide], the pIC50 is > 6.52 in assay [1] and ≤ 6.00 in assay [2].

In the case of `CCn1cc2ncc(N[C@@H](C)c3cccc(NC(=O)c4cncc(Cl)c4)c3)nc2n1` [Compound 281, (S)-5-chloro-N-(3-(1-((2-ethyl-2H-pyrazolo[3,4-b]pyrazin-6-yl)amino)ethyl)phenyl) nicotinamide], the pIC50 was > 6.52 in assay [1] and 6.00 to 6.52 in assay [2].

As to `C[C@H](Nc1cnc2cnn(C)c2n1)c1cccc(NC(=O)c2cnn(C(C)(C)C)c2)c1` [Compound 148, (S)-1-(tert-butyl)-N-(3-(1-((1-methyl-1H-pyrazolo[3,4-b]pyrazin-6-yl)amino)ethyl)phenyl)-1H-pyrazole-4-carboxamide], the pIC50 in assay [1] and in assay [2] was > 6.52 each time.

`C[C@H](Nc1cnc2cnn(C)c2n1)c1cccc(NC(=O)c2cnn(CCF)c2)c1` [Compound 154, (S)-1-(2-fluoroethyl)-N-(3-(1-((1-methyl-1H-pyrazolo[3,4-b]pyrazin-6-yl)amino)ethyl)phenyl)-1H-pyrazole-4-carboxamide]: the pIC50 in assay [1] and in assay [2] was > 6.52 each time.

As to `CCn1cc2ncc(N[C@@H](C)c3cccc(NC(=O)c4ccc(CN5CC(O)C5)c(Cl)c4)c3)nc2n1` [Compound 487, (S)-3-chloro-N-(3-(1-((2-ethyl-2H-pyrazolo[3,4-b]pyrazin-6-yl)amino)ethyl)phenyl)-4-((3-hydroxyazetidin-1-yl)methyl) benzamide], the negative logarithm of the IC50 (pIC50) in assay [1] and in assay [2] was > 6.52 throughout.

In the case of `Cc1cncc(C(=O)Nc2cccc([C@H](C)Nc3cnc4ccn(CCN5CCOCC5)c4n3)c2)c1` [Compound 85, (S)-5-methyl-N-(3-(1-((5-(2-morpholinoethyl)-5H-pyrrolo [2,3-b]pyrazin-3-yl)amino)ethyl)phenyl)nicotinamide], the pIC50 in assay [1] and in assay [2] was ≤ 6.00 each time.

As to `Cc1cncc(C(=O)Nc2cccc([C@H](C)Nc3cnc4cc(F)c(F)cc4n3)c2)c1` [Compound 36, (S)-N-(3-(1-((6,7-difluoroquinoxalin-2-yl)amino)ethyl)phenyl)-5-methylnicotinamide], the pIC50 in assay [1] and in assay [2] was > 6.52 each time.

In the case of `CCc1cc2ncc(N[C@@H](C)c3cc(NC(=O)c4ccc(C(F)(F)F)nc4)ccc3F)nc2o1` [Compound 619, (S)-N-(3-(1-((6-ethylfuro[2,3-b]pyrazin-3-yl)amino)ethyl)-4-fluorophenyl)-6-(trifluoromethyl)nicotinamide], the pIC50 in assay [1] and in assay [2] was > 6.52 each time.

With `Cc1cc(C(=O)Nc2cccc([C@H](C)Nc3cnc4cnn(C)c4n3)c2)ccc1C(=O)OCC(C)C` [Compound 263, isobutyl (S)-2-methyl-4-((3-(1-((1-methyl-1H-pyrazolo[3,4-b]pyrazin-6-yl)amino)ethyl)phenyl)carbamoyl)benzoate], the results for the pIC50 in assay [1] and in assay [2] were > 6.52 and 6.00 to 6.52, respectively.

Take `COc1cccc2ncc(N[C@@H](C)c3cccc(NC(=O)c4cncc(C)c4)c3)cc12` [Compound 27, (S)-N-(3-(1-((5-methoxyquinolin-3-yl)amino)ethyl)phenyl)-5-methylnicotinamide]: the pIC50 in assay [1] and in assay [2] was > 6.52 in each case.

In the case of `CC(C)c1cc(C(=O)Nc2cccc([C@H](C)Nc3cnc4cnn(C)c4n3)c2)n(C)n1` [Compound 165, (S)-3-isopropyl-1-methyl-N-(3-(1-((1-methyl-1H-pyrazolo[3,4-6]pyrazin-6-yl)amino)ethyl)phenyl)-1H-pyrazole-5-carboxamide], the pIC50 in assay [1] and in assay [2] was > 6.52 in each case.

For `C=C(C)c1ncc(C(=O)Nc2cccc([C@H](C)Nc3cnc4cnn(C)c4n3)c2)cc1C` [Compound 216, (S)-5-methyl-N-(3-(1-((1-methyl-1H-pyrazolo[3,4-b]pyrazin-6-yl)amino)ethyl)phenyl)-6-(prop-1-en-2-yl) nicotinamide], the pIC50 in assay [1] and in assay [2] was > 6.52 in each case.
